The text below walks through data of patent US20030003396A1, “Optical data carrier comprising a merocyanine dye as light-absorbent compound in the information layer” (priority 2001, published 2003).

The nature of the data set: UV absorption spectra measured in solution. The class given is physicochemical. The source says: In the case of a write-once optical data carrier according to the invention which is written on and read by means of the light of a blue laser, preference is given to merocyanine dyes whose absorption maximum λmax1 is in the range from 340 to 410 nm, […] half of the […] one tenth of the absorbance value at λmax1 are preferably not more than 50 nm apart. Such a merocyanine dye preferably has no longer-wavelength maximum λmax2 up to a wavelength of 500 nm, particularly preferably up to 550 nm, very particularly preferably up to 600 nm.
The absorption spectra are measured, for example, in solution.
Suitable merocyanines having the required spectral properties are, in particular, those in which the dipole moment change Δμ=|μg−μag|, i.e. the positive difference between the dipole moments in the ground state and in the first excited state, is very small, preferably <5 D, particularly preferably <2 D. A method of determining such a dipole moment change Δμ is described, for example, in F. Würthner et al., Angew. Chem. 1997, 109, 2933, and in the literature cited therein. A low solvent-induced wavelength shift (dioxane/DMF) is likewise a suitable selection criterion. Preference is given to merocyanines whose solvent-induced wavelength shift Δλ=|λDMF−λdioxane|, i.e. the positive difference between the absorption wavelengths in the solvents dimethylformamide and dioxane, is <20 nm, particularly preferably <10 nm, very particularly preferably <5 nm

The mark [1] stands for this setting: Table 1, on the short wavelength flank.
Setting [2] is: Table 3, on the short wavelength flank.
The mark [3] stands for this setting: Table 2, on the long wavelength flank.
Setting [4] is: Table 1, on the long wavelength flank.
Where [5] appears, read: Table 2, on the short wavelength flank.

Marks after values point to notes of the source that are not given here.

In turn, `CCCCN(CCCC)c1ccc(C=C2C(=O)OC(C)(C)OC2=O)o1` [Example 8] registered a ε (Table 1) of 70880 L/mol/cm. For the setting “Table 1, in dioxane”, this compound showed a λmax of 472 nm. Moreover, the λ1/2-λ1/10 under setting [1] is 32^3) nm. Besides, the Δλ (Table 1, |λDMF-λdioxane|) is reported as 5 nm.
For the setting “Table 3”, `CCCCN1C(=O)C(=CC=CN(C)C)C(C(F)(F)F)=C(C#N)C1=O` [Example 71] registered a ε of 89100 L/mol/cm. For the same compound, the λmax (Table 3, in DMF) is 564^6) nm.
In turn, `COC(=O)c1ccc2c(c1)C(C)(C)C(=CC=C(C#N)[n+]1ccccc1)N2C.[O-][Cl+3]([O-])([O-])[O-]` [Example 58] displayed a ε (Table 2) of 36010 L/mol/cm. Under “Table 2, in methanol”, the λmax is given as 459^5) nm.
Under “Table 3”, `C=C(C)C(=O)OCCN1C(=O)C(=CC=CN2CCOCC2)C(C)=C(C#N)C1=O` [Example 76] displayed a ε of 89800 L/mol/cm. In addition, the λmax (Table 3, in dioxane) is reported as 458 nm. The λ1/2-λ1/10 under setting [2] is reported as 28^3) nm.
For the compound `CCCCN1C(=O)C(=CC=C2Oc3ccccc3N2CC)C(C)=C(C#N)C1=O` [Example 55], the ε (Table 2) was found to be 109380 L/mol/cm. For the setting “Table 2, in methylene chloride”, the λmax is 490^6) nm. For the setting “Table 2, |λDMF - λdioxane|”, this compound yielded a Δλ of 5 nm.
For the setting “Table 2”, `CC1=C(C#N)C(=O)N(C2CCCCC2)C(=O)C1=CC=C1N(C)c2ccccc2C1(C)C` [Example 45] displayed a ε of 55910 L/mol/cm. Moreover, the λmax (Table 2, in dioxane) turned out to be 519 nm. Besides, under setting [3], the λ1/2-λ1/10 is recorded as 11^4) nm.
`CCCCN(CCCC)c1ccc(C=C2C(=O)N(CCC)C(=O)C(C#N)=C2C)s1` [Example 18] displayed a ε (Table 1) of 112260 L/mol/cm. Besides, under “Table 1, in dioxane”, the λmax is on record as 535 nm. The λ1/2-λ1/10 under setting [4] was 13^4) nm.
For the compound `COC(=O)C(C#N)=CC=CN1CCOCC1` [Example 79], the ε (Table 3) amounted to 62900 L/mol/cm. Moreover, for the setting “Table 3, in dioxane”, the λmax was found to be 382 nm.
`CCCCN(CCCC)c1ccc(C=C2C(=O)N(C)C(=O)N(C)C2=O)o1` [Example 9]: the ε (Table 1) was 117700 L/mol/cm. Besides, for the setting “Table 1, in DMF”, the λmax is reported as 490^6) nm.
As to `CCN1CCCC1=CC=C(C#N)[n+]1ccccc1.[O-][Cl+3]([O-])([O-])[O-]` [Example 59], the ε (Table 2) worked out at 24400 L/mol/cm. Further, the λmax (Table 2, in methanol) was 462^5) nm.
Take `CCCN1C(=O)C(=CC(C)=CN(C)C)C(C)=C(C#N)C1=O` [Example 83]: where the note is “Table 3, in dioxane”, the λmax came to 337 nm.
The compound `CCN1C(=O)C(=CC=C2N(C)c3ccccc3C2(C)C)SC1=S` [Example 61] had a ε (Table 2) of 36610 L/mol/cm. The λmax (Table 2, in methylene chloride) is listed as 512^6) nm. For the same compound, the λ1/2-λ1/10 under setting [3] is 25^4) nm. The Δλ (Table 2, |λmethylene chloride-λmethanol|) is 36^7) nm.
On to `COC(=O)C(=CC=CN1CCOCC1)C(=O)OC` [Example 78], for which the λmax (Table 3, in dioxane) was 366 nm.
On to `Cc1c(C#N)c(=C(C#N)C#N)[nH]c(=O)c1=CC=C1N(C)c2ccccc2C1(C)C` [Example 66], for which the λmax (Table 2, in methanol) is reported as 546^5) nm.
For the setting “Table 2”, `CN1C(=CC=C2C(=O)c3ccccc3C2=O)C(C)(C)c2ccccc21` [Example 39] returned a ε of 102220 L/mol/cm. Under “Table 2, in dioxane”, this compound returned a λmax of 487 nm. In addition, the λ1/2-λ1/10 under setting [5] is given as 35^3) nm. The compound further displayed a Δλ (Table 2, |λDMF - λdioxane|) of 6 nm.
`CCCCN1C(=O)C(=CC=C2N(C)c3ccc(C(=O)OC)cc3C2(C)C)C(=O)c2ccccc21` [Example 53] registered a ε (Table 2) of 110332 L/mol/cm. Where the note is “Table 2, in dioxane”, the λmax stood at 500 nm.
For the setting “Table 1”, `CCCCN(CCCC)c1ccc(C=C2C(=O)N(C)C(=S)N(C)C2=O)o1` [Example 29] showed a ε of 153420 L/mol/cm. This compound also had a λmax (Table 1, in dioxane) of 508 nm. Moreover, the λ1/2-λ1/10 under setting [4] is on record as 11^4) nm.
Under “Table 1”, `CCCCN(CCCC)c1ncc(C=C2C(=O)N(CC)C(=O)C(C#N)=C2C)s1` [Example 13] returned a ε of 78400 L/mol/cm. For the same compound, the λmax (Table 1, in dioxane) is 508 nm.
Consider `CCN(CC)c1ncc(C=C(C#N)[n+]2ccccc2)s1.[O-][Cl+3]([O-])([O-])[O-]` [Example 33], for which, under “Table 1”, the ε is 28360 L/mol/cm. In addition, the λmax (Table 1, in methanol) was 432^5) nm.
For `CCOC(=O)C1=NN(c2ccccc2)C(=O)C1=CC=C1N(C)c2ccc(C(=O)OC)cc2C1(C)C` [Example 52], the ε (Table 2) worked out at 62720 L/mol/cm. For the setting “Table 2, in dioxane”, this compound gave a λmax of 496 nm.
Under “Table 1”, `CN(C)c1ncc(C(C#N)=C(C#N)C#N)s1` [Example 5] registered a ε of 40990 L/mol/cm. The compound also returned a λmax (Table 1, in dioxane) of 470 nm. Besides, the λ1/2-λ1/10 under setting [1] is on record as 32^3) nm. The Δλ (Table 1, |λDMF-λdioxane|) is given as 16 nm.
In turn, `CCCCN1C(=O)C(=CC=CN(C)c2ccccc2)C(C)=C(C#N)C1=O` [Example 72] returned a ε (Table 3) of 79685 L/mol/cm. Further, the λmax (Table 3, in dioxane) is on record as 480 nm. For the same compound, for the setting “Table 3, |λDMF-λdioxane|”, the Δλ came to 1.3 nm.
Consider `CCN1C(=O)C(=CC=CC=CN(C)C)C(C)=C(C#N)C1=O` [Example 84], for which the ε (Table 3) turned out to be 149800 L/mol/cm. In addition, where the note is “Table 3, in DMF”, the λmax is 552^6) nm.
For the compound `CCOC(=O)C(C#N)=c1[nH]c(=O)c(=CC=CN(C)C)c(C)c1C(=O)OCC` [Example 85], the λmax (Table 3, in methanol) was 509^5) nm.
The compound `COC(=O)c1ccc2c(c1)C(C)(C)C(=CC=c1c(C)c(C#N)c(=C(C#N)C#N)[nH]c1=O)N2C` [Example 67] gave a ε (Table 2) of 50900 L/mol/cm. Further, for the setting “Table 2, in methanol”, the λmax was 554^5) nm.
Regarding `COc1ccc2c(c1)C(C)(C)C(=CC=C1C(=O)N(c3ccc(C4CCS(=O)(=O)C4)cc3)N=C1C)N2C` (centres unmarked) [Example 50], the ε (Table 2) amounted to 47640 L/mol/cm. For the same compound, the λmax (Table 2, in dioxane) was determined as 473 nm.
As to `CCN1CCCC1=CC=C1SC(=S)N(CC)C1=O` [Example 60], under “Table 2”, the ε amounted to 75006 L/mol/cm. Also, the λmax (Table 2, in dioxane) worked out at 466 nm. Further, under setting [3], the λ1/2-λ1/10 was 10^4) nm.
Turning to `CCN1C(=O)C(=Cc2ccc(N3CCCC3)o2)C(C)=C(C#N)C1=O` [Example 17], the ε (Table 1) worked out at 115603 L/mol/cm. The λmax (Table 1, in DMF) is reported as 536^6) nm. This compound also yielded a Δλ (Table 1, |λDMF-λdioxane|) of 2 nm.
Consider `COc1ccc2c(c1)C(C)(C)C(=CC(C#N)=C(C#N)C#N)N2C` [Example 43], for which the ε (Table 2) was 31345 L/mol/cm. Moreover, the λmax (Table 2, in dioxane) was 511 nm. Under setting [5], the λ1/2-λ1/10 was 36^3) nm. For the same compound, the Δλ (Table 2, |λDMF - λdioxane|) is given as 6 nm.
For `CCCN1C(=O)C(=CC=CN(C)C)C(C)=C(C#N)C1=O` [Example 68], the ε (Table 3) worked out at 77180 L/mol/cm. Under “Table 3, in dioxane”, this compound returned a λmax of 462 nm. Further, the λ1/2-λ1/10 under setting [2] was 28^3) nm. The Δλ (Table 3, |λDMF-λdioxane|) stood at 8 nm.
In the case of `CN1C(=CC=C2C(=O)OC(C)(C)OC2=O)C(C)(C)c2ccccc21` [Example 40], the ε (Table 2) worked out at 76260 L/mol/cm. Besides, the λmax (Table 2, in dioxane) was found to be 448 nm. For the same compound, the λ1/2-λ1/10 under setting [5] was 27^3) nm. This compound displayed a Δλ (Table 2, |λDMF - λdioxane|) of 2 nm.
Take `CCCN1C(=O)C(=Cc2cnc(N(C)C)s2)C(C)=C(C#N)C1=O` [Example 6]: the ε (Table 1) came to 62860 L/mol/cm. Where the note is “Table 1, in dioxane”, this compound had a λmax of 502 nm. Further, the λ1/2-λ1/10 under setting [1] is on record as 33^3) nm.
The compound `CN(C=CC=C1C(=O)c2ccccc2C1=O)c1ccccc1` [Example 73] came in with a ε (Table 3) of 84070 L/mol/cm. This compound registered a λmax (Table 3, in dioxane) of 447 nm.
Take `CCN(CC)c1ncc(C=C2C(=O)c3ccccc3C2=O)s1` [Example 32]: the ε (Table 1) turned out to be 62026 L/mol/cm. Further, the λmax (Table 1, in dioxane) was 472 nm. In addition, the λ1/2-λ1/10 under setting [1] is recorded as 42^3) nm.
Under “Table 1”, `CCCCCCN1C(=O)C(=Cc2ccc(N(C)C)o2)C(C)=C(C#N)C1=O` [Example 16] yielded a ε of 128960 L/mol/cm. Under “Table 1, in dioxane”, the λmax is given as 535 nm. For the same compound, the Δλ (Table 1, |λDMF-λdioxane|) was 1.3 nm.
Take `CCCCN(CCCC)c1ccc(C=C2C(=O)N(CCOC)C(=O)C(C#N)=C2C)s1` [Example 14]: under “Table 1”, the ε was 112260 L/mol/cm. Under “Table 1, in dioxane”, this compound displayed a λmax of 535 nm. Moreover, under setting [4], the λ1/2-λ1/10 is on record as 13^4) nm.
On to `CCOC(=O)C(C#N)=c1[nH]c(=O)c(=CC=C2N(C)c3ccccc3C2(C)C)c(C)c1C(=O)OCC` [Example 64], for which the λmax (Table 2, in methanol) is listed as 577^5) nm.
`CN1C(=CC=C2C(=O)CC(C)(C)CC2=O)C(C)(C)c2ccccc21` [Example 41]: the ε (Table 2) was 76130 L/mol/cm. The λmax (Table 2, in dioxane) was 469 nm. Further, under setting [5], the λ1/2-λ1/10 was 28^3) nm. Moreover, the Δλ (Table 2, |λDMF - λdioxane|) worked out at 3 nm.
In turn, `CCCCCCCCCCCCN1C(=O)C(=Cc2ccc(N(C)C)o2)C(=O)N(C)C1=O` [Example 15] had a ε (Table 1) of 53360 L/mol/cm. This compound also came in with a λmax (Table 1, in dioxane) of 483 nm.
As to `CCN1C(=O)C(=CC=CC=CN(C)c2ccccc2)C(C)=C(C#N)C1=O` [Example 80], under “Table 3”, the ε came out at 119800 L/mol/cm. Besides, the λmax (Table 3, in dioxane) came to 585 nm. Further, where the note is “Table 3, on the long wavelength flank”, the λ1/2-λ1/10 is 28^4) nm.
For `CCCCN1C(=O)C(=CC=C2N(C)c3ccccc3C2(C)C)C(C)=C(C#N)C1=O` [Example 42], under “Table 2”, the ε worked out at 113100 L/mol/cm. Moreover, for the setting “Table 2, in dioxane”, the λmax is given as 520 nm. Besides, the λ1/2-λ1/10 under setting [3] is 12^4) nm. For the setting “Table 2, |λDMF - λdioxane|”, this compound returned a Δλ of 2 nm.
Consider `CCCCN(CCCC)c1ccc(C=C2C(=O)N(C)C(=O)C(C#N)=C2C)o1` [Example 10], for which the ε (Table 1) turned out to be 106640 L/mol/cm. The same compound yielded a λmax (Table 1, in dioxane) of 539 nm.
